The text below walks through data of PMC7529893, “Structural basis for substrate recognition and chemical inhibition of oncogenic MAGE ubiquitin ligases” (Nature Communications, 2020).

Broadly, the solubility is the dissolved amount per volume that the medium holds. A lower solubility goes with a poorly soluble substance.

In brackets after ≈: the same amount, converted by molar mass. Entries after “also recorded” stand apart in the source; their conditions may differ.

The target in series [1] is T1, His-SUMO-MAGE-A11 MHD (Homo sapiens, UniProt P43364).
T1 construct: made in house; host or cells: bacteria
T1 sequence (P43364 218-429): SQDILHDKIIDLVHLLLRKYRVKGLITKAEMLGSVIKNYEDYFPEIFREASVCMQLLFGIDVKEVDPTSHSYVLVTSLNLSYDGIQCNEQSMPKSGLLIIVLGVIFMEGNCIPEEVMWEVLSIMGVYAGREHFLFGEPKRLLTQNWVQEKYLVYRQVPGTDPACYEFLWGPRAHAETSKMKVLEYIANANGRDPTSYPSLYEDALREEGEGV
Nature of the series: Nano-differential scanning fluorimetry (NanoDSF). To be noted: six-point dose response, protein 10 µM. Format: binding. As to the method: For NanoDSF measurements, a Prometheus NT.48 instrument (NanoTemper Technologies) was used to determine the melting temperatures. Triplicate samples were prepared in a standard 384-well PCR plate with His-SUMO-MAGE-A11 at 10 µM and ligand concentrations as noted. After incubating the protein and ligands for at least 30 min, capillaries were filled with 10 μL of sample and placed on the sample holder. DMSO was used as a negative reference control while PCF11_6 peptide was used as a positive control validating the assay. A temperature gradient of 1 °C min^−1 from 25 to 95 °C was applied and the intrinsic protein fluorescence at 330 and 350 nm was recorded. The 350 nm to 330 nm ratios of fluorescence measurements were used to calculate the Tm values of each sample using the Nanotemper PR.ThermControl software. Data were further analyzed and plotted using GraphPad Prism (v 8.3.1).

Series [2] concerns the target T2, MAGE-A11 binding to PCF11 (Homo sapiens, UniProt P43364).
T2 construct: expressed in transfected cells
T2 sequence (P43364 1-429): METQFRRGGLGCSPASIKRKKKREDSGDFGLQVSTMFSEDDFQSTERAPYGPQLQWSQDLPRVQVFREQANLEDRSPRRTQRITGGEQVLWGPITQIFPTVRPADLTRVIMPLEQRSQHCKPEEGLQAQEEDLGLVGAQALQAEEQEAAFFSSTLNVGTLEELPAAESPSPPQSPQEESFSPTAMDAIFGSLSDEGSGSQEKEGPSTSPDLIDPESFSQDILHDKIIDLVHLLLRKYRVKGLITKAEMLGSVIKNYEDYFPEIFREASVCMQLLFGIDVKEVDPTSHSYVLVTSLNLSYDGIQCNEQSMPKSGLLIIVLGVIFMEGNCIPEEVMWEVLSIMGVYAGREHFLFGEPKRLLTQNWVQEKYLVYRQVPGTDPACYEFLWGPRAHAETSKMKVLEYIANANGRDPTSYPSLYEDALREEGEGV
Nature of the series: Pull-down (co-IP) of FLAG-MAGE-A11 with endogenous PCF11 in cell lysate. To be noted: 100 µM, 24 h, FLAG-MAGE-A11 HEK293FT cell lysates. As to the method: (§1) HEK293FT cells were plated in 6 cm^2 plates and transfected 24 h later with Effectene (QIAGEN) according to the manufacturer’s protocol. After 48 h, cells were washed and scraped in cold PBS, spun down, and resuspended in lysis buffer (50 mM Tris pH 7.4, 150 mM NaCl, 1 mM DTT, 0.1% (v/v) Triton X-100, 10 mM N-Ethylmaleimide, and 1X protease inhibitor cocktail (Sigma)). Cell lysates were incubated with appropriate antibodies overnight at 4 °C and then with protein A beads for 2 h at 4 °C. Beads were then washed with lysis buffer three times and eluted with 2X SDS sample buffer.
(§2) For western blotting, samples in SDS sample buffer were resolved on SDS-PAGE gels and then transferred to nitrocellulose membranes prior to blocking in TBST with 5% (w/v) milk powder or 3% (w/v) bovine serum albumin and probing with primary and secondary antibodies (GE Healthcare). Primary antibodies were: anti-Myc (Sigma, #C3956), anti-FLAG (Sigma, #F3165), anti-HUWE1 (Novus Biologicals, #NB 100-652), anti-PCF11 (Bethyl Laboratories, #A303-706A), anti-GAPDH (Cell Signaling Technology, #2118), anti-TRIM28 (Abcam, #ab22553), anti-AMPKα1 (Cell Signaling Technology, #2795), and anti-MMS19 (Proteintech, #16015-1-AP) and Tb-anti-GST (Invitrogen, #PV3551). Secondary antibodies were: Donkey Anti-Rabbit IgG (GE Healthcare, NA934V) and Sheep Anti-Mouse IgG (GE Healthcare, NA931V). […]

For series [3], the target named is T3, MAGE-F1:MMS19 (Homo sapiens, UniProt Q9HAY2).
T3 construct: expressed in transfected cells
T3 sequence (Q9HAY2 1-307): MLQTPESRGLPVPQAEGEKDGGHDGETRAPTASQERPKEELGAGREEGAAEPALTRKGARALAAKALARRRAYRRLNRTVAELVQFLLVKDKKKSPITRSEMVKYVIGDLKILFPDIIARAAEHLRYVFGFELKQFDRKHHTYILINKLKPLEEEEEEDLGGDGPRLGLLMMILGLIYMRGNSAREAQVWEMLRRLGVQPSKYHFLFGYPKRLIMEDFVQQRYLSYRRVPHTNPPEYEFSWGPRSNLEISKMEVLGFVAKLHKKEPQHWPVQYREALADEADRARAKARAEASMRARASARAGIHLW
Nature of the series: Co-IP of MAGE-F1 with MMS19 in cell lysate. The series is classed as binding. To be noted: 100 µM, 24 h. The procedure: as §1, §2

Series [4] is described as follows: Solubility assay (μSOL Evolution). The series is classed as physicochemical. Conditions: citrate phosphate-buffered saline (isotonic) with 1% DMSO; 18 h at RT. The procedure: Solubility assays were carried out on a Biomek FX lab automation workstation (Beckman Coulter, Inc., Fullerton, CA) using μSOL Evolution software (pION Inc., Woburn, MA). The detailed method is described as follows. 10 µl of 10 mM compound stock (in DMSO) was added to 190 μl 1-propanol to make a reference stock plate. In total, 5 µl from this reference stock plate were mixed with 70 µl 1-propanol and 75 µl citrate phosphate-buffered saline (PBS; isotonic) to make the reference plate, and the UV spectrum (250–500 nm) of the reference plate was read. In total, 6 µl of 10 mM test compound stock was added to 594 µl buffer in a 96-well storage plate and mixed. The storage plate was sealed and incubated at RT for 18 h. The suspension was then filtered through a 96-well filter plate (pION Inc., Woburn, MA). In all, 75 µl of filtrate was mixed with 75 µl 1-propanol to make the sample plate, and the UV spectrum of the sample plate was read. Calculations were carried out with μSOL Evolution software based on the area under the curve (AUC) of the UV spectrum of the sample and reference plates. All compounds were tested in triplicate.

For `FC(F)(F)c1ccc2c(NCCCNCc3ccc4[nH]ccc4c3)ccnc2c1` [SJ000521054-02], the “thermal stabilization of MAGE-A11 (NanoDSF)” value in series [1] (listed as SJ521054) is “showed stabilization of MAGE-A11; also recorded: stabilized MAGE-A11”. The “MAGE-A11 binding to PCF11 in cell lysate” value in series [2] (listed as SJ521054) was “inhibited MAGE-A11 binding to PCF11 in cell lysates”. Besides, the “interaction of MAGE-F1 with MMS19 in cell lysate” value in series [3] (listed as SJ521054) is “do not disrupt interaction; also recorded: did not disrupt interaction”. In series [4], this compound had a solubility at 18 h of 26.5 µM (≈ 10.6 µg/mL).

With `c1ccc2c(NCCCNCc3ccc4[nH]ccc4c3)ccnc2c1` [SJ001008066-01], the “thermal stabilization of MAGE-A11 (NanoDSF)” value in series [1] (listed as SJ1008066) is “showed stabilization of MAGE-A11; also recorded: stabilized MAGE-A11”. The “MAGE-A11 binding to PCF11 in cell lysate” value in series [2] (listed as SJ1008066) is “inhibited MAGE-A11 binding to PCF11 in cell lysates”. Besides, in series [3] (listed as SJ1008066), the “interaction of MAGE-F1 with MMS19 in cell lysate” value is “do not disrupt interaction; also recorded: did not disrupt interaction”. In series [4], this compound showed a solubility at 18 h of 37.8 µM (≈ 12.5 µg/mL).
